From the NIST ThermoML archive (doi:10.1021/je4005245)

Conditions: 101.33 kPa, Liquid, Vibrating wire viscometry

CC(C)CCCC(C)CCCC(C)CCCCC(C)CCCC(C)CCCC(C)C (configuration not stated) [2,6,10,15,19,23-hexamethyltetracosane]
Conditions | viscosity [mPa·s]
283.77 K | 60.2
288.47 K | 46.1
293.29 K | 35.59
298.12 K | 27.95
303.07 K | 22.45
308.09 K | 18.3
313.13 K | 15
318.17 K | 12.5
323.19 K | 10.57
328.26 K | 8.99
333.2 K | 7.8
338.18 K | 6.81
343.07 K | 6
348.08 K | 5.32
353.08 K | 4.72
358.13 K | 4.2
362.98 K | 3.78

CCCCC(CC)COC(=O)c1ccccc1C(=O)OCC(CC)CCCC (configuration not stated) [bis(2-ethylhexyl) 1,2-benzenedicarboxylate]
Conditions | viscosity [mPa·s]
288.53 K | 110.7
293.38 K | 78.73
298.29 K | 57.94
303.33 K | 43.27
308.23 K | 33.17
313.18 K | 26.13
317.99 K | 21.08
323.02 K | 16.96
328.12 K | 13.91
333.19 K | 11.62
337.71 K | 9.903
343.53 K | 8.268
348.48 K | 7.158
353.68 K | 6.199

CCCCC(CC)COC(=O)CCCCCCCCC(=O)OCC(CC)CCCC (configuration not stated) [bis(2-ethylhexyl) decanedioate]
Conditions | viscosity [mPa·s]
284.06 K | 31.95
288.71 K | 25.84
293.37 K | 21.14
298.26 K | 17.42
303.1 K | 14.55
307.9 K | 12.37
313.24 K | 10.4
318.26 K | 9.023
323.17 K | 7.865
328.26 K | 6.878
333.2 K | 6.067
338.16 K | 5.435
342.81 K | 4.883
348.07 K | 4.38
352.98 K | 3.987
358.09 K | 3.626
